Data taken from a melting point compilation (Tetko et al.; mined from patent text by program, amines drawn as free bases though some values may be those of a salt).

SMILES | melting point [°C]
CNC(=O)OCCOc1cc(-n2c(=O)cc(C(F)(F)F)n(C)c2=O)c(F)cc1Cl | 173 to 175
CS(=O)(=O)Nc1ccc(CCBr)cc1 | 92 to 94
CC(C)(C)CN1C(=O)N(CC(=O)O)CC(c2ccccc2Cl)c2cc(Cl)ccc21 (configuration not stated) | 228 to 231
COc1ccc(S(=O)(=O)C(C)(Cc2cccnc2)C(=O)NO)cc1 (configuration not stated) | 98
COC(=O)c1c(Br)ccc2nn(C)cc12 | 103 to 104
COc1cc2ncnc(N3CCC(CN4C=CC=NS4(=O)=O)CC3)c2cc1OC | 173 to 174
CSc1nn(C(=S)Oc2ccccc2)c(=O)n1C | 242
COC(=O)CCn1c(=O)n(CCN2CCN(c3ccccc3OC)CC2)c(=O)c2c(C)scc21 | 127 to 128
CC(C)(C)NC(=O)[C@@H]1CCCN1C(=O)[C@@H](O)[C@H](Cc1ccccc1)NC(=O)[C@H](CC(N)=O)NC(=O)COc1ccc(NC(=O)CN2CCOCC2)cc1 | 121 to 127
Oc1ccc2cc(-c3cc4ccccc4s3)ccc2c1Cl | 220 to 221
c1ccc(-c2ccc3nncn3n2)nc1 | 191 to 192
COc1ccc(NC(=O)c2ccc(Br)cc2)cc1N1CCN(C)CC1 | 158 to 160
Cc1c(C(F)(C(F)(F)F)C(F)(F)F)c(-c2ccc(S(N)(=O)=O)cc2)c2n1CCC2 | 200
CC(C)(C)NCC(O)COc1cccc2[nH]cc(Cl)c12 (configuration not stated) | 95 to 97
COC(=O)c1ccc(CN2C(=O)CCc3c(CC4SC(=O)NC4=O)ccc(OC)c32)cc1 (configuration not stated) | 193 to 196
Nc1cc2c(cc1C(=O)c1ccccc1Cl)CCC2 | 90 to 92
C[C@@H](Nc1ncnc2[nH]c(-c3ccc(CN4CCN(C)CC4)cc3)cc12)c1ccccc1 | 248 to 250
COc1ccc2c(c1)c1c3c(c(-c4c(Cl)cccc4OC)cc1n2CCO)C(=O)NC3=O | 264 to 268
Cn1c(=O)c2c(ncn2Cc2noc(CCl)n2)n(C)c1=O | 146 to 148
O=C(NC(=O)c1ccc2ncccc2c1)NC1CCN(Cc2ccc3ncccc3c2)CC1 | 202 to 204
OCc1cccc2c1nc(-c1c(F)cccc1F)n2Cc1c(F)cccc1F | 157 to 158
COC(=O)C1=C(C)NC(C)=C(C(=O)OCOC(=O)C(C)(C)C)C1c1ccccc1 (single isomer, unassigned; (+)) | 81 to 82
CC1(C)CC(=O)Nc2c(Br)cc3c(c21)OC(CBr)C3 (configuration not stated) | 237 to 239
COC(=O)c1cccc(C(=O)NC2N=C(c3ccccc3F)c3ccccc3N(CC(=O)N3CC4CCC(CC4)C3)C2=O)c1 (racemic) | 166 to 177
Nc1nc2ccccc2c2c1nc(CCCOc1ccccc1)n2CCCNC(=O)c1ccc(Br)cc1 | 186 to 187

SMILES | melting point [°C]
Nc1cc(-n2c(=O)oc3c(c2=O)CCC3)c(F)cc1Cl | 93
O=C(c1cc(C(F)(F)F)nc2c(Cl)cc(Cl)cc12)c1cc(C(F)(F)F)nc2c(Cl)cc(Cl)cc12 | 193 to 194
CC(=O)OC1CSC(Oc2ccc(-c3ccncc3)cc2)C(OC(C)=O)C1OC(C)=O (configuration not stated) | 180
Cc1oc(-c2ccccc2)nc1COc1ccc(CON=C2CC(C(=O)O)c3ccccc32)cc1 (configuration not stated) | 148 to 149
N#Cc1c(Cl)ccc(F)c1Cl | 69 to 71
O=S(=O)(NCCCCOc1ccc(-n2ccnc2)cc1)c1ccc(I)cc1 | 150 to 152
O=CN(O)[C@@H](CCCO)CS(=O)(=O)c1ccc(Oc2ccc(OC(F)(F)F)cc2)cc1 | 85 to 86
CC(=O)NC[C@H]1CN(c2ccc3c(c2)CS(=O)(=O)N3C)C(=O)O1 | 84 to 86
CCCc1nn(-c2ccc(C(F)(F)F)cn2)cc1CCCCn1cc(CCC(=O)O)c(-c2ccc(F)cc2)n1 | 119 to 121
N#Cc1cc(N)ccc1N1CCN(C2CCSCC2)CC1 | 109
CN(C(=O)c1ccccc1OCC(=O)O)c1ccccc1 | 148
O=CNCS(=O)(=O)c1ccccc1 | 106 to 107
N#Cc1ccc2nc(C(=O)NCc3cccc(OCCSc4nc[nH]n4)c3)[nH]c(=O)c2c1 | 195 to 198
Cc1c(C)n(CC(F)(F)F)c2c(OCc3ccccc3)nncc12 | 83 to 84
CC(C)c1ccc(-n2nc(O)c3[nH]c4cc(Cl)ccc4c(=O)c3c2=O)cc1 | 323 to 326
Cc1nc2cc(CN3CCN(C(c4ccccc4)c4ccccc4)CC3)ccc2n1CCSc1ccccc1 | 170
COc1cc2c(c(C(C)C)c1OC)CC(C)C=C2 (configuration not stated) | 56 to 57
CC(C)(C)OC(=O)N1CCC(c2ccc(N3C[C@H](COS(C)(=O)=O)OC3=O)cc2F)CC1 | 163 to 165
CN(C)CCCCNC(=O)c1ccc(-c2nnc(CSCCOc3ccccc3)o2)cc1 | 71 to 78
Nc1cc(-n2nnn(CCCF)c2=O)c(F)cc1Cl | 84
CC1(C(O)(C=Cc2ccc(Cl)cc2Cl)Cn2ccnc2)COCOC1 (configuration not stated) | 142 to 144
CC#CCOc1ccc(S(=O)(=O)N(C)C(CCCSc2ccc(Cl)cc2)C(=O)OC)cc1 (configuration not stated) | 88 to 89
CCCN(CCC)C(=O)C1Cc2ccccc2N1c1nc(-c2ccccc2)nc(C)c1C (configuration not stated) | 167 to 168
Clc1ccc2c(c1)C(c1ccccc1)Nc1nncn1-2 (configuration not stated) | 242 to 244
COc1cccc2c1OC(SC)C2=O (configuration not stated) | 103 to 105

SMILES | melting point [°C]
CCc1nc([C@@H]2C[C@H]2c2nc3ccccc3n2C)cc(-n2nc(C)nc2C)n1 (relative stereo) | 158 to 160
Cc1ccc(S(=O)(=O)Nc2cccc(Sc3ccccc3)n2)cc1 | 128 to 130
Oc1ccc(CN2CCOCC2)c2cccnc12 | 130
COc1ccc(C=CC(=O)Nc2ccc(C(C)(C)C)cc2)cc1 | 158 to 160
CC(=O)NC[C@H]1CN(c2ccc(N3CCC(=C(C#N)C#N)CC3)c(F)c2)C(=O)O1 | 158 to 160
COc1ccc(Cl)cc1C(=O)Nc1ccc(CC(=O)O)cc1 | 152
Cc1ccc(C(O)c2ccc3noc(-c4cccc(Cl)c4)c3c2)cc1 (configuration not stated) | 225
ON=C(c1ccc(CN2CCOCC2)cc1)c1cccc2nc(N[C@@H]3CCc4ccccc43)ccc12 | 167
OC1CSC(Oc2cc(-c3ccc(F)nc3)cc(F)c2F)C(O)C1O (configuration not stated) | 179
Cc1cn(-c2cc(NC(=O)c3ccc(C)c(C#Cc4ccc(NC5CCC5)nn4)c3)cc(C(F)(F)F)c2)cn1 | 223 to 225
Cc1[nH]c(=O)c(C#N)cc1-c1ccc2nccn2c1 | > 300
Clc1cccc(NC2=Nc3ccc(Cl)cc3CS2)c1 | 174 to 175
CCCCCCCCCCCCCCCCC(C(=O)O)S(C)=O (configuration not stated) | 93 to 97
CCOC(=O)C(Cc1cccc2ccccc12)(Cc1cccc2ccccc12)C(=O)OCC | 79 to 81
COC(=O)C(=O)c1ccc(NC(=O)COc2ccc3ccccc3c2)cc1 | 175 to 176
NS(=O)(=O)c1cc(CC(=O)C=CC(=O)O)ccc1Cl | 217 to 218
Cc1ccc(NC(=S)NC(=O)c2ccccc2)c(Cl)c1 | 143
COc1ccc(C(=O)Sc2ccc(C(=O)O)cc2)cc1C1(C)CCCCC1 | 216 to 218
Cc1cc(C)c(OP(Oc2c(C)cc(C)cc2C)Oc2c(C)cc(C)cc2C)c(C)c1 | 92 to 95
CSc1ccc(C(=O)c2c(C)c(C(=O)O)c3n2CCC3C(=O)O)n1C (configuration not stated) | 212 to 213
O=c1[nH]c(=S)[nH]c2ccnn12 | 295
OCC1OC(n2cnc3c(NCCCCC(c4ccccc4)c4ccccc4)ncnc32)C(O)C1O (configuration not stated) | 78 to 82
COc1cc(-c2cccc(C=C3SC(N4CCOCC4)=NC3=O)c2)cc(C23CC4CC(CC(C4)C2)C3)c1 | 234 to 238
Clc1ccc2c(c1)C1(CN3CCC(Nc4ncccn4)CC3)CC2c2ccccc21 (configuration not stated) | 212 to 214
CCCN(CCC)c1ccc2c(c1)O/C(=C1/Oc3cc(N(CCC)CCC)ccc3C1=O)C2=O | 283

SMILES | melting point [°C]
O=C(O)C(=O)c1ccc(OCCOc2ccc(-c3ccccc3)cc2)cc1 | 179 to 180
COc1cc2nc(NC3CC3)nc(-c3cccc([N+](=O)[O-])c3)c2cc1OC | 140 to 142
COC(=O)c1cc(=O)c2cc(OC)cc([N+](=O)[O-])c2o1 | 192 to 193
COC(=O)CCc1ccc(-n2c(C)cn(-c3ccc(C(=N)NC(=O)OC)cc3)c2=O)cc1 | 212 to 213
Cc1nc(C(=O)c2[nH]c3ccc(Cl)cc3c2CC(=O)O)c[nH]1 | 237 to 238
COc1ccc(-c2cnc(N3CCc4c([nH]c5ccccc45)C3c3ccc4c(c3)OCO4)nc2)cc1 (configuration not stated) | 200 to 202
C=CCc1cc(OCC(=O)OCC)ccc1O | 52.8
O=S(=O)(CC=C1CCC1)c1ccccc1 | 76 to 78
CCCCCCCCCCCCOCCCNc1cc(OCC(=O)Nc2ccc(NNC=O)cc2)c2ccccc2c1O | 137 to 141
C[C@@H]1S[C@@H](C(=O)O)Cc2cc3c(cc2C1=O)OCO3 | 192 to 193
COCc1nc(C(C)(C)O)c(C(=O)O)n1Cc1ccc(-c2ccccc2-c2nnn[nH]2)cc1 | 187
O=C(CCCC(Cc1cccc2ccccc12)C(=O)O)c1ccccc1 (configuration not stated) | 134 to 136
O=C(O)CCCN(C(=O)c1ccc(F)cc1)c1ccccc1-c1ccccc1 | 120 to 122
CCCCn1cc(C2CCN(CCOc3ccccc3C(=O)O)CC2)c2ccncc21 | 158 to 159
COC(C)=C(Cl)C(=O)Nc1ccccc1 | 100
COC1(c2cc(F)cc(Sc3ccc4c(c3)CCC(=S)N4C)c2)CCOCC1 | 134
OC(CCc1ccoc1)c1cnc2sc3c(n12)CCCCC3 (configuration not stated) | 153 to 155
CC(C)C(O)c1ccc2oc3ncccc3c(=O)c2c1 (configuration not stated) | 160
CCOC(=O)C(NC(C)=O)(C(=O)OCC)[C@@H]1CC(=O)C[C@H]1N=[N+]=[N-] (relative stereo) | 121 to 122
NCc1nc2ccccc2o1 | 46.5 to 47.5
COC(=O)C1=C(C)NC(=O)N(C(=O)OC)C1c1cccc([N+](=O)[O-])c1 (configuration not stated) | 152 to 155
O=C(O)CCCCCCCCC=Cc1cccs1 | 61 to 62
